# Assay results: patent US4734282A, “Rodenticidal compositions containing 1,4-naphthoquinone derivatives” (priority 1986, dated 1988)
# Several values for one entry are separate records, joined by “and”; a condition that tells them apart may be missing. Identical values can stand only once. Like-named read-outs stand apart in the source and are kept apart here.
# Experiments:
# [1] = tested on: vitamin K-dependent carboxylation; assay: in vitro rat hepatic microsomal vitamin K-dependent carboxylation of endogenous substrate, inhibition by vitamin K antagonists; format: biochemical; details: for Slope (% Inhibition/Concentration), mean ± S.D.: slope parameter s of logistic function; for IO (percent inhibition when C = 0), mean: third fit parameter of logistic function
# Protocol: (§1) The procedures for preparation of vitamin K-dependent carboxylase and assay of carboxylation were similar to those described in other laboratories (J. Biol. Chem. 251, 2770-2776; Biochim. Biophys. Acta 499, 181-193). Each animal was studied under both control and inhibitory conditions. The rats were rendered unconscious with nitrogen, the liver was quickly excised and minced in a total volume of 2.0 ml ice cold buffer I (0.25M sucrose, 0.025M imidazole, pH 7.20) per gram of liver. The liver was homogenized using 4 passes of a Teflon pestle (clearance 0.15-0.23 mm; Arthur H. Thomas Co., Philadelphia, Pa.) at 300 rpm. The post-mitochondrial supernatant and microsomal pellet were prepared by a published procedure (J. Biol. Chem. 251, 2770-2776). The microsomal pellet was resuspended in buffer II (0.25 M sucrose, 0.025M imidazole, 0.080M KCl, pH 7.20). This suspension supplied both the enzymes (vitamin K-dependent carboxylase and enzymes for vitamin K biotransformations) and endogenous substrates (precursors of vitamin K-dependent proteins) of interest. Microsomal suspension protein concentration was determined by the method of Bradford (Anal. Biochem. 72, 248-254) as described for Bio-Rad reagent and adjusted to approximately 15 mg/ml in buffer II.
# (§2) Control, blank, and experimental reaction mixtures were made for each experiment. Control and blank reaction mixtures were made up with vitamin K and without vitamin K, respectively. Experimental reaction mixtures contained both vitamin K and a vitamin K antagonist. The control reaction mixture contained 3.00 ml of microsomal suspension, 0.81 ml of buffer II, 1.20 ml of an ATP-generating system (final concentrations: 1 mM ATP, 10 mM phosphocreatine, 2.5 mM Mg[acetate]2 ·4H2 O, 20 μg/ml creatine phosphokinase [52 U/ml]), 0.60 ml of NADH (final concentration 2 mM), 0.30 ml of dithiothreitol (final concentration 7 mM) dissolved in buffer II, 0.060 ml of NaH^14 CO3 (1.0 μCi/μl; added 0.5 min prior to reaction initiation), and at the time of reaction initiation 0.030 ml of vitamin K1 (final concentration 20 μg/ml) diluted in 0.85% sodium chloride solution. This vitamin K concentration is associated with maximal in vitro incorporation of added H^14 CO3 into vitamin K-dependent substrate proteins (J. Biol. Chem. 251, 2770-2776). The blank reaction mixture consisted of the same components except that vitamin K was replaced by an equal volume of isotonic saline. The experimental reaction mixtures were made up in the same way as the control reaction mixtures with the exceptions that: (1) a volume of buffer II was replaced by a volume of buffer II containing an inhibitor of vitamin K-dependent carboxylation, and (2) all individual volumes were two-thirds of those in the control reaction mixtures. […] Chloro-K1 was formulated as an oil-in-water emulsion with Tween 80 (5% v/v final concentration), while chloro-K3 was formulated as a suspension in Tween 80 (5% v/v final concentration) (Molecular Pharmacology 10, 373-380).
# (§3) Reaction mixtures were incubated for 5 minutes at 100 excursions per minute in a reciprocating shaker water bath at 27° . After addition of vitamin K or saline, serial samples (0.45 ml each) were collected from each control and blank reaction tube at 2, 4, 6, 8, 10, 12, 14, 16, 30, 60, 90, and 120 minutes, and from each experimental reaction tube at 2, 4, 6, 8, 10, 12, 14, and 16 minutes. Each 0.45 ml sample was transferred to a tube containing 1 ml of ice-cold 10% TCA. The TCA-precipitated ^14 C-containing protein pellet was then prepared as previously described (J. Biol. Chem. 251, 2770-2776) and radioactivity was determined in an Intertechnique (Plaisir, France) liquid scintillation spectrometer using the external standard method of quench correction.
# [2] = tested on: prothrombin complex activity; assay: in vivo prothrombin complex activity (PCA), its degradation and synthesis rate, from prothrombin time; parameters: species or system rat; details: for PCA° (steady-state prothrombin complex activity before warfarin) / kd (first-order rate constant for degradation of PCA) / R°Syn (rate of synthesis of PCA): individual pretreated rat; for kd (first-order rate constant for degradation of PCA): after 2 mg/kg i.v. warfarin; for R°Syn (rate of synthesis of PCA): PCA° × kd; for reduction in R°Syn: vs normal rats
# [3] = tested on: vitamin K-dependent carboxylation; assay: in vitro vitamin K-dependent carboxylation in liver microsomes of pretreated rats; format: biochemical, rat; details: for Normalized P∞ / V/KM (intrinsic formation rate of carboxylated vitamin K-dependent proteins): individual pretreated rat; for V/KM (intrinsic formation rate of carboxylated vitamin K-dependent proteins): liver microsomes about 22 hours after warfarin
# Protocol: as §1, §2
# as §3, with “correction. […]” for “correction.”
# [4] = tested on: prothrombin complex activity; details: 2 mg/kg sodium warfarin i.v., approximately 19 hours prior to sacrifice; cited from earlier work
# [5] = tested on: rats; details: cited from earlier work
# [6] = percent inhibition of vitamin K-dependent carboxylation vs concentration, logistic fit per animal, vitamin K1 20 μg/ml, 27°, read-out: IC50 (mean ± S.D.)
# [7] = range among individual rats, read-out: IC50 (range)
compound,measurement,setting,value
"O=C1C(Cl)=CC(=Nc2ccc(O)cc2)C=C1Cl [2,6-DIP, 2,6-dichloroindophenol sodium]",IC50,[1]; [6],116 ± 39.2 µM
same,"Slope (% Inhibition/Concentration), range",[1]; range among individual rats,0.940-1.36 % Inhibition/Concentration
same,IC50,[1]; [7],78.1 to 160 µM
same,"Slope (% Inhibition/Concentration), mean ± S.D.",[1],1.13 ± 0.174 % Inhibition/Concentration
"S=C=Nc1cccc2ccccc12 [ANIT, α-naphthylisothiocyanate]",PCA° (steady-state prothrombin complex activity before warfarin),[2],56.1% and 56%
same,kd (first-order rate constant for degradation of PCA),[2],3.19e-05 s⁻¹
same,R°Syn (rate of synthesis of PCA),[2],155 %/day
same,reduction in R°Syn,[2],approximately 53%
same,Normalized P∞,[3],15.59 dpm ^14 C incorporated/mg prot
same,V/KM (intrinsic formation rate of carboxylated vitamin K-dependent proteins),[3],0.1104 min⁻¹
same,increase in normalized P∞,[3]; one treated rat vs normal,approximately 50%
"ClC(Cl)(Cl)Cl [CCl4, carbon tetrachloride]",average turnover time of PCA,[2]; group average,3.27 ± 1.34 h
same,biologic half-life of PCA,[2]; group average,2.27±0.94 hours
same,"kd, average of treated rats",[2]; group average,9.83e-05 ± 5.43e-05 s⁻¹
same,kd (first-order rate constant for degradation of PCA),[2]; listed as OCl4,6.92e-05 s⁻¹ and 0.0001609 s⁻¹ and 6.82e-05 s⁻¹
same,R°Syn (rate of synthesis of PCA),[2]; listed as OCl4,101 %/day and 137 %/day
same,PCA° (steady-state prothrombin complex activity before warfarin),[2]; listed as OCl4,16.9% and 9.9% and 23.4%
same,reduction in R°Syn,[2],approximately 62%
same,Normalized P∞,[3],6.58 dpm ^14 C incorporated/mg prot and 9.86 dpm ^14 C incorporated/mg prot and 9.04 dpm ^14 C incorporated/mg prot
same,V/KM (intrinsic formation rate of carboxylated vitamin K-dependent proteins),[3],0.0798 min⁻¹ and 0.0944 min⁻¹ and 0.1257 min⁻¹
same,reduction in V/KM,[3]; two rats receiving 1.0 ml CCl4/kg,20-30%
"C/C(=C\CC1=C(Cl)C(=O)c2ccccc2C1=O)CCC[C@H](C)CCC[C@H](C)CCCC(C)C [Chloro-K1, 2-Chloro-3-phytyl-1,4-naphthoquinone]",IC50,[1]; [6],285 ± 89.3 µM
same,"Slope (% Inhibition/Concentration), range",[1]; range among individual rats,0.469-0.898 % Inhibition/Concentration
same,IC50,[1]; [7],171 to 393 µM
same,"Slope (% Inhibition/Concentration), mean ± S.D.",[1],0.634 ± 0.159 % Inhibition/Concentration
"O=C1C=C(Cl)C(=O)c2ccccc21 [Chloro-K3, 2-chloro-1,4-naphthoquinone]",times more potent than warfarin,[1]; in vitro rat hepatic vitamin K-dependent carboxylation system,45 times
same,IC50,[1]; [6],146 ± 62.1 µM
same,"Slope (% Inhibition/Concentration), range",[1]; range among individual rats,0.738-1.55 % Inhibition/Concentration
same,IC50,[1]; [7],100 to 236 µM
same,"Slope (% Inhibition/Concentration), mean ± S.D.",[1],1.20 ± 0.340 % Inhibition/Concentration
"O=C1c2ccccc2C(=O)C1c1ccccc1 [Phenindione, phenindione]",IC50,[1]; [6],19 ± 11.2 µM
same,"Slope (% Inhibition/Concentration), range",[1]; range among individual rats,0.269-0.963 % Inhibition/Concentration
same,IC50,[1]; [7],7.36 to 30.2 µM
same,"Slope (% Inhibition/Concentration), mean ± S.D.",[1],0.475 ± 0.330 % Inhibition/Concentration
"CCC1(c2ccccc2)C(=O)NC(=O)NC1=O [Phenobarbital, Phenobarbital sodium]",PCA° (steady-state prothrombin complex activity before warfarin),[2],143.1% and 102.7%
same,kd (first-order rate constant for degradation of PCA),[2],4.31e-05 s⁻¹ and 4.77e-05 s⁻¹
same,R°Syn (rate of synthesis of PCA),[2],533 %/day and 423 %/day
same,average increase in PCA° beyond normal rats,[2]; two treated rats vs four normal rats,38%
same,average increase in R°Syn beyond normal rats,[2]; two treated rats vs normal rats,44%
same,Normalized P∞,[3],4.92 dpm ^14 C incorporated/mg prot and 5.86 dpm ^14 C incorporated/mg prot
same,V/KM (intrinsic formation rate of carboxylated vitamin K-dependent proteins),[3],0.1174 min⁻¹ and 0.1586 min⁻¹
"Oc1c(Cl)c(Cl)nc(Cl)c1Cl [TCP, 2,3,5,6-Tetrachloropyridin-4-ol]",difference between IC50 of most potent (TCP) and least potent (warfarin) compound,[1],"approximately 5,000 fold"
same,IC50,"[1]; as printed in discussion text, read-out: average IC50",1.23 µM
same,IC50,[1]; [6],1.23 ± 0.24 µM
same,"Slope (% Inhibition/Concentration), range",[1]; range among individual rats,0.734-1.02 % Inhibition/Concentration
same,IC50,[1]; [7],0.89 to 1.44 µM
same,"Slope (% Inhibition/Concentration), mean ± S.D.",[1],0.884 ± 0.117 % Inhibition/Concentration
"CC(=O)CC(c1ccccc1)c1c(O)c2ccccc2oc1=O (stereo not shown) [Warfarin, warfarin]","Slope (% Inhibition/Concentration), range",[1]; range among individual rats,0.637-2.20 % Inhibition/Concentration
same,"IO (percent inhibition when C = 0), mean",[1],8.89 ± 3.77%
same,"IO (percent inhibition when C = 0), mean",[1]; listed as warfarin,8.9%
same,"IO (percent inhibition when C = 0), range","[1]; third fit parameter, range among rats",2.74-13.1%
same,IC50,"[1]; warfarin, logistic fit with IO as third parameter, read-out: IC50 (mean ± S.D.)",6630 ± 2850 µM
same,plasma prothrombin complex activity at the time of sacrifice,[4],~6 % of normal
same,LD50 (may actually be as high as),[5]; in rats,10 to 50 mg/kg
same,LD50 (assumed),"[5]; intravenously administered, assumed value",0.2 mg/kg
